# Source: patent publication US12180226B2, “Spirotricycle RIPK1 inhibitors and methods of uses thereof” (Merck Sharp & Dohme LLC, priority 2021, dated 2024)
# Biological target: RIPK1 (recombinant GST-RIPK1 kinase domain, residues 1-327) (Homo sapiens (Human), UniProt Q13546)
# Test: RIPK1-ADP-Glo Enzymatic Assay
# Format: biochemical
# Conditions: ADP-Glo; 25 nM GST-RIPK1, 300 μM ATP; assay lower limit ~25 nM; read-out: RIPK1 V0 Ec50
# Procedure, shortened: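 GST-tagged kinase domain (residues 1-327, Sf21-expressed), 25 nM, pre-incubated 30 min with compound at ambient temperature, then reacted 150 min with 300 μM ATP and 3 μM dephosphorylated MBP in HEPES pH 7.3 buffer. ADP measured by ADP-Glo luminescence; EC50 from ten-point titration (top 100000 nM), four-parameter fit.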
# RIPK1 (recombinant GST-RIPK1 kinase domain, residues 1-327), sequence (Q13546 1-327): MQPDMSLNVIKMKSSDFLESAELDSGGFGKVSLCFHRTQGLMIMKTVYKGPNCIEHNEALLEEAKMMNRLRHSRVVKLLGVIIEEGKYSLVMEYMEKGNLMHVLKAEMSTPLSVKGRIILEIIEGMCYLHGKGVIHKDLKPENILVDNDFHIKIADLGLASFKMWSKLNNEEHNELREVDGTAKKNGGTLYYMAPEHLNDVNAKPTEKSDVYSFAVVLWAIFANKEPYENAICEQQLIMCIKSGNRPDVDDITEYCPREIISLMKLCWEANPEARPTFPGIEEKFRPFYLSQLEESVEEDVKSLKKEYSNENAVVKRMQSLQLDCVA
row,Compound,EC50 [nM]
1,"O=C(c1cccc(-c2ccccc2)n1)N1CCC2(CC1)O[C@@H]1CC[C@@H](c3cc(F)cc(F)c3)N1C2=O [Example 6.97, (5′S,7a′R)-5′-(3,5-difluorophenyl)-1-(6-phenylpyridine-2-carbonyl)tetrahydro-3′H-spiro[piperidine-4,2′-pyrrolo[2,1-b] [1,3]oxazol]-3′-one]",< 25
2,"Cc1ncc([C@@H]2CC[C@H]3OC4(CCN(c5ccc(C#N)c(C)n5)CC4)C(=O)N32)cc1F [Example 4.46, 6-[(5′S,7a′R)-5′-(5-fluoro-6-methylpyridin-3-yl)-3′-oxotetrahydro-1H,3′H-spiro[piperidine-4,2′-pyrrolo[2,1-b] [1,3]oxazol]-1-yl]-2-methylpyridine-3-carbonitrile]",46.9
3,"O=C1N2[C@@H](CC[C@H]2c2cc(F)cc(F)c2)OC12CCN(c1ccnc(C(F)F)n1)CC2 [Example 4.9, (5′S,7a′R)-1-[2-(difluoromethyl)pyrimidin-4-yl]-5′-(3,5-difluorophenyl)tetrahydro-3′H-spiro[piperidine-4,2′-pyrrolo[2,1-b] [1,3]oxazol]-3′-one]",< 25
4,"COc1nc(N2CCC3(CC2)O[C@@H]2CC[C@@H](c4cc(F)cc(F)c4)N2C3=O)ncc1C [Example 4.59, (5′S,7a′R)-5′-(3,5-difluorophenyl)-1-(4-methoxy-5-methylpyrimidin-2-yl)tetrahydro-3′H-spiro[piperidine-4,2′-pyrrolo[2,1-b] [1,3]oxazol]-3′-one]",149
5,"N#Cc1cccc(C(=O)N2CCC3(CC2)O[C@@H]2CC[C@@H](c4cccc(F)c4)N2C3=O)c1F [Example 6.122, 2-fluoro-3-[(5′S,7a′R)-5′-(3-fluorophenyl)-3′-oxotetrahydro-1H,3′H-spiro[piperi-dine-4,2′-pyrrolo[2,1-b][1,3]oxazole]-1-carbonyl]benzonitrile]",47.5
6,"CC1CN(C(=O)c2ccccc2)CCC12O[C@@H]1CC[C@@H](c3cc(F)cc(F)c3)N1C2=O (single isomer, unassigned) [Example 2.7, (3[R or S],4[S or R], 5′S,7a′R)-1-benzoyl-5′-(3,5-difluorophenyl)-3-methyltetrahydro-3′H-spiro[piperidine-4,2′-pyrrolo[2,1-b]oxazol]-3′-one]",43.1
7,"O=C(c1cccc(O)c1)N1CCC2(CC1)O[C@@H]1CC[C@@H](c3cc(F)cc(F)c3)N1C2=O [Example 5.63, (5′S,7a′R)-5′-(3,5-difluoro-phenyl)-1-(3-hydroxy-benzoyl)tetrahydro-3′H-spiro[piperidine-4,2′-pyrrolo[2,1-b]oxazol]-3′-one]",< 25
8,O=C(c1coc2ccccc12)N1CCC2(CC1)O[C@@H]1CC[C@@H](c3cc(F)cc(F)c3)N1C2=O [Example 5.70],< 25
9,"Cc1cccc(C(=O)N2CCC3(CC2)O[C@@H]2CC[C@@H](c4cc(F)cc(F)c4)N2C3=O)c1F [Example 6.8, (5′S,7a′R)-5′-(3,5-difluorophenyl)-1-(2-fluoro-3-methyl-benzene-1-carbonyl) tetrahydro-3′H-spiro [piperidine-4,2′-pyrrolo[2,1-b][1,3]oxazol]-3′-one]",< 25
10,"CCOc1cccc(C(=O)N2CCC3(CC2)O[C@@H]2CC[C@@H](c4cccc(F)c4)N2C3=O)c1 [Example 6.121, (5′S,7a′R)-1-(3-ethoxy-benzene-1-carbonyl)-5′-(3-fluorophenyl)-tetrahydro-3′H-spiro [piperidine-4,2′-pyrrolo[2,1-b][1,3]oxazol]-3′-one]",< 25
11,"O=C1N2[C@H](OC13CCN(c1ccnc4ccnn14)CC3)[C@H](O)C[C@H]2c1ccccc1 [Example 4.248, (5′S,7′R,7a′R)-7′-hydroxy-5′-phenyl-1-(pyrazolo[1,5-a]pyrimidin-7-yl)tetrahydro-3′H-spiro[piperidine-4,2′-pyrrolo[2,1-b] [1,3]oxazol]-3′-one]",33.7
12,"N#Cc1ccccc1CN1CCC2(CC1)O[C@@H]1CC[C@@H](c3cc(F)cc(F)c3)N1C2=O [Example 22.3, 2-{[(5′S,7a′R)-5′-(3,5-difluorophenyl)-3′-oxotetrahydro-1H,3′H-spiro[piperidine-4,2′-pyrrolo[2,1-b][1,3]oxazol]-1-yl]methyl}benzonitrile]",807
13,"N#Cc1ccc(C(=O)N2CCC3(CC2)O[C@@H]2CC[C@@H](c4cc(F)cc(F)c4)N2C3=O)c(F)c1 [Example 5.20, 4-((5′S,7a′R)-5′-(3,5-difluorophenyl)-3′-oxo-tetrahydro-3′H-spiro [piperidine-4,2′-pyrrolo-[2,1-b]oxazole]-1-carbon-yl)-3-fluorobenzonitrile]",212
14,"O=C1N2[C@@H](CO[C@H]2c2cc(F)cc(F)c2)CC12CCN(c1ccnc3ccnn13)CC2 (stereo in doubt) [Example 4.147, 3′-(3,5-difluorophenyl)-1-(pyrazolo[1,5-a]pyrimidin-7-yl)dihydro-1′H,3′H,5′H-spiro[piperidine-4,6′-pyrrolo[1,2-c] [1,3]oxazol]-5′-one]",< 25
15,"O=C1N2[C@@H](CC[C@H]2c2ccccc2F)OC12CN(CCc1ccccc1)C2 [Example 22.8, (5′S,7a′R)-5′-(2-fluorophenyl)-1-(2-phenylethyl)tetrahydro-3′H-spiro[azetidine-3,2′-pyrrolo[2,1-b][1,3]oxazol]-3′-one]",348
16,"O=C1N2[C@@H](CC[C@H]2c2cccc(F)c2)OC12CCN(c1ncnc3ccnn13)CC2 [Example 4.204, (5′S,7a′R)-5′-(3-fluorophenyl)-1-(pyrazolo[1,5-a] [1,3,5]triazin-4-yl)tetrahydro-3′H-spiro[piperidine-4,2′-pyrrolo[2,1-b] [1,3]oxazol]-3′-one]",< 25
17,"O=C1N2[C@@H](CC[C@H]2c2cc(F)cc(F)c2)OC12CCN(c1ncc(F)c(C3CC3)n1)CC2 [Example 4.65, (5′S,7a′R)-1-(4-cyclopropyl-5-fluoropyrimidin-2-yl)-5′-(3,5-difluorophenyl)tetrahydro-3′H-spiro[piperidine-4,2′-pyrrolo[2,1-b] [1,3]oxazol]-3′-one]",164
18,"O=C(c1ccoc1)N1CCC2(CC1)O[C@@H]1CC[C@@H](c3cccc(F)c3)N1C2=O [Example 6.125, (5′S,7a′R)-5′-(3-fluoro-phenyl)-1-(furan-3-carbonyl)tetrahydro-3′H-spiro[piperidine-4,2′-pyrrolo[2,1-b] [1,3]oxazol]-3′-one]",< 25

# The next lines start with the values.
row,EC50 [nM],Compound
1,349,"N#Cc1ccc(C(=O)N2CCC3(CC2)O[C@@H]2CC[C@@H](c4ccccc4)N2C3=O)cc1 [Example 6.151, 4-[(5′S,7a′R)-3′-oxo-5′-phenyltetrahydro-1H,3′H-spiro[piperi-dine-4,2′-pyrrolo[2,1-b][1,3]oxazole]-1-carbonyl]benzonitrile]"
2,81.7,"O=C1N2[C@@H](CC[C@H]2c2ccccc2)OC12CCN(c1ccnc(C3CC3)n1)CC2 [Example 11.15, (5′S,7a′R)-1-(2-cyclopropylpyrimidin-4-yl)-5′-phenyltetrahydro-3′H-spiro[piperidine-4,2′-pyrrolo[2,1-b][1,3]oxazol]-3′-one]"
3,< 25,"O=C(c1ccc(F)cc1F)N1CCC2(CC1)O[C@@H]1CC[C@@H](c3ccccc3)N1C2=O [Example 5.11, (5′S,7a′R)-1-(2,4-difluoro-benzene-1-carbonyl)-5′-phenyltetrahydro-3′H-spiro[piperidine-4,2′-pyrrolo[2,1-b][1,3]oxazol]-3′-one]"
4,61.1,"O=C1N2[C@@H](CC[C@H]2c2ccccc2)OC12CCN(c1ncc(F)cc1C(F)F)CC2 [Example 11.25, (5′S,7a′R)-1-[3-(difluoromethyl)-5-fluoropyridin-2-yl]-5′-phenyltetrahydro-3′H-spiro[piperidine-4,2′-pyrrolo[2,1-b][1,3]oxazol]-3′-one]"
5,33.7,"O=C1N2[C@@H](CC[C@H]2c2ccccc2)OC12CCN(c1ccnc(-c3ccccc3)n1)CC2 [Example 11.14, (5′S,7a′R)-5′-phenyl-1-(2-phenylpyrimidin-4-yl)tetrahydro-3′H-spiro[piperidine-4,2′-pyrrolo[2,1-b][1,3]oxazol]-3′-one]"
6,540,"COC(=O)c1cc(C)c(N2CCC3(CC2)O[C@@H]2CC[C@@H](c4ccccc4)N2C3=O)nc1C#N [Example 4.188, methyl 2-cyano-5-methyl-6-[(5′S,7a′R)-3′-oxo-5′-phenyltetrahydro-1H,3′H-spiro[piperidine-4,2′-pyrrolo[2,1-b] [1,3]oxazol]-1-yl]pyridine-3-carboxylate]"
7,907,"O=C1N2[C@@H](CC[C@H]2c2ccccc2)OC12CCN(c1ccc(OC3CCC3)nn1)CC2 [Example 11.9, (5′S,7a′R)-1-[6-(cyclobutyloxy)pyridazin-3-yl]-5′-phenyltetrahydro-3′H-spiro[piperidine-4,2′-pyrrolo[2,1-b][1,3]oxazol]-3′-one]"
8,< 25,"N#Cc1cccc(C(=O)N2CCC3(CC2)O[C@@H]2CC[C@@H](c4ccccc4)N2C3=O)c1 [Example 6.153, 3-[(5′S,7a′R)-3′-oxo-5′-phenyltetrahydro-1H,3′H-spiro[piperi-dine-4,2′-pyrrolo[2,1-b][1,3]oxazole]-1-carbonyl]benzonitrile]"
9,537,"O=C(Nc1ccccc1)N1CCC2(CC1)O[C@@H]1CC[C@@H](c3cc(F)cc(F)c3)N1C2=O [Example 12.1, (5′S,7a′R)-5′-(3,5-Difluorophenyl)-3′-oxo-N-phenyltetrahydro-3′H-spiro[piperidine-4,2′-pyrrolo[2,1-b]oxazole]-1-carboxamide]"
10,31.7,"O=C1CCc2nc(N3CCC4(CC3)O[C@@H]3CC[C@@H](c5ccccc5)N3C4=O)ccc21 [Example 4.196, (5′S,7a′R)-1-(5-oxo-6,7-dihydro-5H-cyclopenta[b]pyridin-2-yl)-5′-phenyltetrahydro-3′H-spiro[piperidine-4,2′-pyrrolo[2,1-b] [1,3]oxazol]-3′-one]"
